In EP4810492A1, “NMT INHIBITOR, PREPARATION METHOD THEREFOR, AND USE THEREOF” (Nanjing Synnocare Pharmaceutical Technology Co., Ltd., priority 2023, dated 2025):
Where two headings read alike, the source gives them in different places.

What was measured:
[1] = Plasma concentrations in mice following oral administration; conditions: ICR, mouse, po, 10 mg/kg
Excerpt: (§1) This study evaluated the plasma concentrations of the compounds of the present invention in mice. ICR mice were procured from JOINN Laboratories (Suzhou) Co., Ltd. At the initiation of dosing, the animals were 6-8 weeks old and weighed 18-25 g. Mice were housed in transparent plastic cages (400 mm*240 mm*200 mm). The animal facility maintained a 12-hour light/12-hour dark cycle (lights on 07:00-19:00) using fluorescent lighting. The dark period may be intermittently interrupted as required for study-related activities. Ambient temperature and relative humidity were controlled within 20-26 °C and 40-70%, respectively. Animals were fed certified rodent chow and provided with drinking water filtered and sterilized through an ultrapure water system. All animals had ad libitum access to water throughout the study. Animals were fasted for at least 12 hours prior to dosing, and food was restored 4 hours post-dosing.
(§2) Prior to dosing, body weights were recorded, and healthy animals with similar weights were selected and randomly assigned to groups (n = 3 per group) based on body weight. The compounds were formulated in a 0.5% aqueous carboxymethyl cellulose (CMC) solution and administered orally at a single dose of 10 mg/kg. Blood samples (≥0.2 mL) were collected via venipuncture at 1 h and 4 h post-dose into EDTA-K2 anticoagulant tubes. Tubes were gently inverted to mix, immediately placed in an ice-water bath, and rapidly centrifuged at 4,000 rpm for 10 min at 4 °C to separate plasma. Plasma was stored at -70 °C until analysis.
(§3) Calibration curve and QC plasma samples: Working solutions for the calibration curve and QC samples were prepared using 80% methanol in water (Thermo Fisher) as the diluent. To prepare plasma calibration standards and QC samples, 5 µL of each working solution was added to 45 µL of blank plasma and mixed. To the prepared calibration and QC samples, 300 µL of internal standard solution (tolbutamide at 8 µg/mL in acetonitrile, Thermo Fisher) was added. […] The supernatant was collected and analyzed by liquid chromatography-tandem mass spectrometry (LC-MS/MS; AB Sciex API 5000).
(§4) Plasma sample pretreatment: After thawing at room temperature, 50 µL of each plasma sample was mixed with 300 µL of the internal standard solution (tolbutamide at 8 µg/mL in acetonitrile, Thermo Fisher). […] The supernatant was collected and analyzed by LC-MS/MS (AB Sciex API 5000).
(§5) Raw chromatograms, concentrations, and accuracy data were generated using Analyst software version 1.6.3.

[2] = test system: MV-4-11 cells; assay: Anti-proliferative activity against MV-4-11 cells (cell viability chemiluminescence); format: cell-based; conditions: MV4-11, 72 h, MV-4-11 human monocytic leukemia cells, three days of exposure
Procedure: This study utilized a cell proliferation assay to analyze the cytotoxicity of MV-4-11 human monocytic leukemia cells after three days of exposure to NMT1 inhibitors. The MV-4-11 cell line was purchased from Nanjing Cobuilder Biotechnology Co., Ltd., and cultured in IMDM medium (Viva cell) in an incubator (Thermo) at 37 °C with 5% CO2. In this experiment, NMT1 inhibitors were dissolved in DMSO to obtain 600 µM stock solutions. Dose-response solutions were prepared with a top endpoint compound concentration of 3 µM, followed by three-fold serial dilutions in DMSO, totaling eight data points. The final concentration of DMSO was 0.5%.
MV-4-11 cells were seeded into a white 96-well plate, 80 µL of cell suspension per well, containing 6000 MV-4-11 cells. The cell plate was placed in the CO2 incubator for overnight culture. Then, 20 µL of NMT1 inhibitor solutions at different concentrations were added to the wells. The 96-well plate was placed back into the incubator for three days. Another cell plate was prepared, and the signal was read on the day of drug addition to serve as the maximum value (Max value in the equation below) for data analysis. To this cell plate, 25 µL of cell viability chemiluminescence detection reagent was added per well, followed by incubation at room temperature for 10 minutes to stabilize the luminescence signal. A multi-label analyzer was used for reading.
The raw data were converted into inhibition rates using the equation (Sample - Min) / (Max - Min) * 100%. The IC50 values were then determined by fitting a four-parameter curve (using the "log(inhibitor) vs. response - Variable slope" model in GraphPad Prism). Min: wells treated with 0.5% DMSO; Max: Day 0 wells. Table 1 provides the inhibitory activity of the compounds of the invention on MV-4-11 cell proliferation. Table 1: Compound Inhibitory Activity against NMT1 Enzyme (IC50) and Anti-proliferative Activity against MV-4-11 Cell line (IC50)

[3] = biological target: T1, NMT1 enzyme (Homo sapiens, UniProt P30419); assay: Inhibitory activity on NMT1 enzyme catalysis (fluorescence intensity assay); format: biochemical
T1 sequence (P30419 1-496): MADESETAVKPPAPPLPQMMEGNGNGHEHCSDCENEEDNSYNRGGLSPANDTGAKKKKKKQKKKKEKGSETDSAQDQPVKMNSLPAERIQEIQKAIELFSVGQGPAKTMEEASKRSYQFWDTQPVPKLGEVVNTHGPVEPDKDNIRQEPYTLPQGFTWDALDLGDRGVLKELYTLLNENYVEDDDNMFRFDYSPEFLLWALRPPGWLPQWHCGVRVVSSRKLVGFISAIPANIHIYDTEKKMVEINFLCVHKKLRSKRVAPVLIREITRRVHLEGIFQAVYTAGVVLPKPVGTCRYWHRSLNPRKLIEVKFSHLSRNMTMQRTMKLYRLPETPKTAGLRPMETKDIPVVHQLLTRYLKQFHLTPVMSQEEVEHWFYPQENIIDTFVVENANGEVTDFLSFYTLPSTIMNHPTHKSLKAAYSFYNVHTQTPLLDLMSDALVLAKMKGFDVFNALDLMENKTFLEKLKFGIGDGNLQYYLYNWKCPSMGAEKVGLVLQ
Procedure: This study evaluated the ability of the compounds of the invention to inhibit NMT1 catalytic activity in vitro. […] The final concentration of the NMT1 enzyme was 6 nM, the final concentration of CPM (Reactive thiol fluorescence probe, Invitrogen, D346) was 1 µM, the final concentration of HSPP60 SRC was 20 µM, and the final concentration of DMSO was 0.5%.
Compounds were dissolved in DMSO to obtain 10 mM stock solutions. Dose-response solutions were prepared with a top endpoint compound concentration of 3 mM, followed by three-fold serial dilutions in DMSO, totaling ten data points. […] Then, 2.5 µL of the NMT1 enzyme working solution was added to the 384-well assay plate, followed by incubation at 25 °C for 10 minutes. Subsequently, 5 µL of the CPM and myristoyl-CoA working solution was added, the plate was centrifuged at 1000 rpm for 1 minute, and then 2.5 µL of the HSPP60 SRC working solution was added to initiate the reaction. The reaction was incubated at 25 °C for 45 minutes.
The IC50 curve of the compounds was fitted using the software XLfit 5.5.0 according to the nonlinear regression equation.

[4] = mouse, in vivo, po, 10 mg/kg
Excerpt: as §1, §2, §3, §4, §5

[5] = 6 nM NMT1 enzyme, 1.25 µM myristoyl-CoA, 20 µM HSPP60 SRC peptide, 45 minutes at 25 °C, read-out: NMT1 (IC50)

SMILES | concentration at 1 h [1] | concentration at 4 h [1] | concentration at 8 h [1] | IC50 [2] | IC50 [3, 5] | IC50 ([2]; Homo sapiens) | IC50 [3] | 1 h Concentration [4] | 4 h Concentration [4] | 8 h Concentration [4]
Cc1nn(C)c(C)c1NS(=O)(=O)c1c(Cl)cc(-c2ccc3sc4c(c3c2)CNCC4)cc1Cl [Compound 1, 2,6-dichloro-4-(1,2,3,4-tetrahydrobenzo[4,5]thieno[3,2-c]pyridin-8-yl)-N-(1,3,5-trimethyl-1H-pyrazol-4-yl)benzenesulfonamide] | 1820 ± 493 ng/mL | 1350 ± 15 ng/mL | 723 ± 363 ng/mL | 11.1 nM | 3.44 nM |  |  |  |  | 
Cc1c(NS(=O)(=O)c2c(Cl)cc(-c3ccc4sc5c(c4c3)CNCC5)cc2Cl)c(CC(F)(F)F)nn1C [Compound 17] | 5100 ± 2700 ng/mL | 4080 ± 1970 ng/mL | 3000 ± 1020 ng/mL | 62.5 nM | 5.62 nM |  |  |  |  | 
Cc1c(NS(=O)(=O)c2c(Cl)cc(-c3ccc4sc5c(c4c3)CNCC5)cc2Cl)c(CC2CC2)nn1C [Compound 21] |  |  |  |  |  | 26.9 nM | 3.58 nM | 1900 ± 199 ng/mL | 1114 ± 196 ng/mL | 679 ± 220 ng/mL
Cc1c(NS(=O)(=O)c2c(Cl)cc(-c3ccc4sc5c(c4c3)CCNC5)cc2Cl)c(CC(C)C)nn1C [Compound 54] | 3320 ± 1200 ng/mL | 2310 ± 211 ng/mL | 981 ± 343 ng/mL | 38 nM | 4.73 nM |  |  |  |  | 
Cc1c(NS(=O)(=O)c2c(Cl)cc(-c3ccc4oc5c(c4c3)CNCC5)cc2Cl)c(CC#N)nn1C [Compound B18] | 2490 ± 1200 ng/mL | 1670 ± 467 ng/mL | 1040 ± 157 ng/mL | 37 nM | 4.85 nM |  |  |  |  | 
Cc1c(NS(=O)(=O)c2c(Cl)cc(-c3ccc4oc5c(c4c3)CNCC5)cc2Cl)c(CC2CC2)nn1C [Compound B26] | 4630 ± 2020 ng/mL | 3380 ± 575 ng/mL | 2150 ± 206 ng/mL | 11.4 nM | 2.87 nM |  |  |  |  | 
Cc1c(NS(=O)(=O)c2c(Cl)cc(N3CCc4sc5c(c4C3)CNCC5)cc2Cl)c(CC(F)(F)F)nn1C [Compound B35] |  |  |  |  |  | 7.48 nM | 1.97 nM | 2267 ± 1084 ng/mL | 1270 ± 384 ng/mL | 684 ± 239 ng/mL
Cc1c(NS(=O)(=O)c2ccc(-c3ccc4oc5c(c4c3)CNCC5)cc2Cl)c(CC(F)(F)F)nn1C [Compound B39] | 9760 ± 410 ng/mL | 8530 ± 1170 ng/mL | 6730 ± 1450 ng/mL | 40.1 nM | 4.76 nM |  |  |  |  | 
Cc1c(NS(=O)(=O)c2c(Cl)cc(-c3ccc4sc5c(c4c3)CNCC5)cc2Cl)c(CCF)nn1C [Compound B43] | 3220 ± 650 ng/mL | 1710 ± 224 ng/mL | 1570 ± 104 ng/mL | 3.42 nM | 1.79 nM |  |  |  |  | 
Cc1c(NS(=O)(=O)c2c(Cl)cc(-c3ccc4sc5c(c4c3)CCNC5)cc2Cl)c(CCF)nn1C [Compound B44] |  |  |  | 9.27 nM | 2.08 nM |  |  |  |  | 
Cc1c(NS(=O)(=O)c2c(Cl)cc(-c3ccc4oc5c(c4c3)CNCC5)cc2Cl)c(CCF)nn1C [Compound B45] | 5040 ± 1820 ng/mL | 3800 ± 621 ng/mL | 3730 ± 1280 ng/mL | 9.51 nM | 1.94 nM |  |  |  |  | 
Cc1c(NS(=O)(=O)c2c(Cl)cc(N3CCc4sc5c(c4C3)CNCC5)cc2Cl)c(CCF)nn1C [Compound B46] |  |  |  | 3.61 nM | 2.03 nM |  |  |  |  | 
Cc1c(NS(=O)(=O)c2ccc(-c3ccc4sc5c(c4c3)CNCC5)cc2Cl)c(CCF)nn1C [Compound B48] | 2960 ± 340 ng/mL | 1400 ± 240 ng/mL | 447 ± 71 ng/mL | 3.26 nM | 1.89 nM |  |  |  |  | 
Cc1c(NS(=O)(=O)c2ccc(-c3ccc4sc5c(c4c3)CCNC5)cc2Cl)c(CCF)nn1C [Compound B49] |  |  |  | 19.5 nM | 2.37 nM |  |  |  |  | 
